Experiment [1] can be described thus: Bacterial cell-wall components on dye-coated substrate and titration with Reichardt's dye. The settings on record: 5%, 1%, 0.2% (wt/wt) solutions (pure LPS 0.1%, 0.02%, 0.004%); both experimental set-ups.
The test system of experiment [2] is Influenza A (ATCC # VR-544). Nature of the experiment: Reichardt's dye-treated samples with upper respiratory viruses. The settings on record: compared with Salmonella bacterial control at a similar concentration.
Experiment [3] relates to bacterial spores such as Anthracis bacillus.
Another experiment deals with vegetative organism. Details: species or system Anthracis bacillus.
Experiment [4] has as its system S. aureus. Briefly: Standard curve on dye-coated paper, Delta E against log CFU/mL. Conditions: paper coated with 80 mg/10 g acetonitrile, 100 μL aliquots, spectrophotometer CIELAB.
For the next experiment, the system named is P. aeruginosa. Nature of the experiment: Titration of microorganism spot with Reichardt's dye solution. Conditions: 10^7 CFU/ml, 100 μl; dye 160 mg in 10 g acetonitrile, 10 μl aliquots.
The subject of the next experiment is C. albicans. Described as above. Conditions: 10^7 CFU/ml, 100 μl; dye 160 mg in 10 g acetonitrile, 10 μl aliquots.
A further experiment deals with autoclaved S. aureus. Nature of the experiment: Autoclaved bacteria sprayed with Reichardt's dye indicator spray. Conditions: S. aureus 10^6 CFU/mL autoclaved; spray 160 mg in 10 g isopropanol. Here is the method: In order to verify that the bacterial cell wall plays a critical role in this reaction, a vial of S. aureus (10^6 CFU/mL) was autoclaved before testing with the indicator spray (160 mg Reichardt's Dye in 10 g of isopropanol). Autoclaving kills bacteria by essentially blowing the cell wall apart. The steam from the autoclave penetrates the bacteria and rips the membrane apart.

Another experiment has as its system G. vaginalis. Briefly: Titration of microorganism spot with Reichardt's dye solution. Conditions: 10^7 CFU/ml, 100 μl; dye 160 mg in 10 g acetonitrile, 10 μl aliquots.
The test system of the next experiment is Salmonella. Briefly: Dye-coated absorbent substrate tested with Salmonella-containing liquid. Conditions: 100 microliter aliquots on dye-coated substrate. From the text: Gibraltar Labs (Fairfield, N.J.) placed 100 microliter aliquots of the solutions onto the absorbent substrate.
The next experiment deals with A. niger. Briefly: Titration of microorganism spot with Reichardt's dye solution. Conditions: 10^5 CFU/mL, 100 μl; dye 160 mg in 10 g acetonitrile, 10 μl aliquots.
For experiment [5], the system named is Streptococcus pneumoniae (ATCC # 10015). Briefly: Reichardt's dye-treated samples with upper respiratory pathogens. Conditions: 100 microliters. The source says: (§1) It has been observed in prior experiments that gram positive bacteria elicit a stronger de-colorization response than other types of microorganisms.
Experiment [6] concerns Haemophilus influenzae (ATCC # 49247). The description is as above. Conditions: 100 microliters.
Text: as §1

The subject of experiment [7] is Streptococcus pyogenes (ATCC # 10782). Described as above. The settings on record: 100 microliters.
Text: as §1

For experiment [8], the system named is Moraxella lacunata (ATCC # 17972). The description is as above. The settings on record: 100 microliters.
Text: as §1

The next experiment concerns E. coli. Nature of the experiment: Titration of microorganism spot with Reichardt's dye solution. The settings on record: 10^7 CFU/ml, 100 μl; dye 160 mg in 10 g acetonitrile, 10 μl aliquots. The source says: (§2) 10^7 CFU/ml of S. aureus.
Experiment [9] concerns S. aureus. The experiment is described as above. The settings on record: 10^7 CFU/ml, 100 μl; dye 160 mg in 10 g acetonitrile, 10 μl aliquots.
Text: as §2

The test system of a further experiment is Lactobacillus. Described as above. Conditions: 10^7 CFU/ml, 100 μl; dye 160 mg in 10 g acetonitrile, 10 μl aliquots.
For the next experiment, the system named is Rhinovirus Type 42. Briefly: Reichardt's dye-treated samples with upper respiratory viruses. Conditions: compared with Salmonella bacterial control at a similar concentration.
The next experiment deals with gram-positive bacteria. Briefly: Visible colour change of Reichardt's dye-coated absorbent substrate, serial dilutions of bacteria. Conditions: 100 μl aliquot on dye-coated substrate, colour change visible to the eye.
The subject of another experiment is S. aureus protoplasts. Nature of the experiment: Protoplasts on label coated with Reichardt's dye. The settings on record: 100 μL aliquot, label coated with 80 mg/10 g acetonitrile, approximately 5 minutes. Here is the method:
An additional test to verify reaction with the cell wall was performed by creating protoplasts through enzymatic digestion of the bacterial cell wall. […] Louis, Mo.) suspended in TM buffer (0.05 M Tris-HCl, pH 7.4, 20 mM MgCl2) with 15% (w/v) of sucrose (Sigma-Aldrich, St. Louis, Mo.). The reaction was carried out for one hour at 30° C., after which the solution was centrifuged at 10,000×g, and rinsed twice with TM buffer containing 13% (w/v) sucrose according to methods detailed by Taku and Fan (The Journal of Biological Chemistry, 1979). The solution containing protoplasts was reacted (100 μL aliquot) with an Avery label coated with Reichardt's dye (80 mg/10 g acetonitrile). Untreated bacteria was diluted 10 fold in the TM/13% sucrose buffer (without lysozyme) and were placed on the label as a positive control.

With `C[C@@H](O[C@H]1[C@H](O)[C@@H](CO)OC(O)[C@@H]1N)C(=O)O` (stereo partly drawn) [Muramic acid, muramic acid], in [1], the “de-colorization of Reichardt's dye by cell-wall component” value is “strongest reaction, resulting in a near instantaneous de-colorization of the dye”.
For the compound `[O-]c1c(-c2ccccc2)cc(-[n+]2c(-c3ccccc3)cc(-c3ccccc3)cc2-c2ccccc2)cc1-c1ccccc1` [Reichardt's dye, 4-(2,4,6-triphenylpyridinium-1-yl)-2,6-diphenylphenolate], the “de-colorization of the dye” value in experiment [2] is listed as “markedly less de-colorization”; in the experiment with vegetative organism, “de-colorization occurred”; in the experiment with autoclaved S. aureus it was “no de-colorization was observed”; with Salmonella it was “decolorized the dye”; in the experiment on Rhinovirus Type 42, “markedly less de-colorization”; with S. aureus protoplasts, “minimal de-colorization”. Also, the “sensitivity of the dye to bacterial spores” value in experiment [3] is on record as “not sufficiently sensitive”. In addition, in the experiment with S. aureus [4], the “responsiveness of the dye (Delta E)” value is “dose-dependent”. The “Amount of Dye Required for Persistent Color” value in the experiment with P. aeruginosa was 80 µL; in the experiment with C. albicans, 70 µL; in the experiment with G. vaginalis, 90 µL; in the experiment on A. niger it was 50 µL; in the experiment on E. coli, 90 µL; with S. aureus [9] it was 90 µL. In addition, in the experiment on Lactobacillus, the “Amount of Dye Required for Persistent Color” value came out at 110 µL. For the same compound, the “de-colorization of dye-treated samples” value in experiment [5], in experiment [6], in experiment [7] and in [8] was “de-colorized” in each case. For the same compound, the “lower limit for indication of gram-positive bacteria” value in the experiment on gram-positive bacteria stood at 100 CFU/ml.
